Source: patent US7122569B2, “Ethylene glycol esters as photoactive agents” (priority 1997, dated 2006)

How the values were obtained:
[1] = test system: L1210 cells; experiment: In vitro photocytotoxicity on L1210 cells, 690 nm light 5 J/cm^2, MTT; assay type: cell-based, murine; conditions: 690 nm 5 J/cm^2
Protocol: (§1) Either L1210 cells or the dendritic cell line D2SC/1 was incubated for one hour at 37° C. with either A-EA6 or BPD-MA. After removal of excess drug, the cells were exposed to 690 nm light at 5 J/cm^2 light. Cell survival was determined 18–24 hours later using the MTT colorimetric assay described in Example 5. Percent cells killed was calculated by reference to cells exposed to light only. […] The open circles represent A-EA6 plus serum; the closed circles represent BPD-MA plus serum; open squares represent A-EA6 in the absence of serum; and closed squares represent BPD-MA in the absence of serum.

[2] = test system: HL-60 cells; experiment: DNA fragmentation in HL-60 cells after PDT; assay type: cell-based
[3] = test system: MHC I receptors; experiment: Surface expression of MHC I receptors on dendritic cells after PDT, flow cytometry; assay type: cell-based; conditions: 690 nm 5 J/cm^2, 3 hours post-treatment
Protocol: The cells were treated with 690 nm light at 5 J/cm^2 and then labeled with the appropriate antibody 3 hours post-treatment and assessed by flow cytometry. The results were measured as the percent of the mean channel fluorescence intensity for light-treated control cells.

[4] = test system: dendritic cell line D2SC/1; experiment: In vitro photocytotoxicity on dendritic cell line D2SC/1, 690 nm light 5 J/cm^2, MTT; assay type: cell-based; conditions: dendritic cells, 5% fetal calf serum, 690 nm 5 J/cm^2
Protocol: as §1

[5] = test system: caspases; experiment: Caspase activation in HL-60 cells after PDT; assay type: cell-based
Protocol: The effect on caspase activation in HL-60 cells was also measured. […] This effect is desirable as it is associated with apoptosis. Using apoptosis to remove unwanted cells causes the least effect on surrounding normal cells and tissues.

[6] = test system: antigen-induced ear swelling; experiment: Immunomodulatory activity, whole-body PDT, suppression of ear swelling; assay type: in vivo, mice; conditions: red LED light 15 J/cm^2
Protocol: Flanks of control and test mice were painted with the antigen DMFB and their ears were challenged 5 days later by pasting with the same compound. […] The percent suppression of ear swelling was calculated in comparison to controls.

[7] = test system: M1 tumors; experiment: In vivo photodynamic therapy in mice harboring M1 tumors, tumor-free on day 7; conditions: 1 mg/kg IV, 50 J/cm^2 690 nm
From the text: This was followed by whole body irradiation with 50 J/cm^2 of 690 nm laser light at various times after administration of the drug.

[8] = test system: mitogenic pathway kinase p70 S6K; experiment: PDT effect on mitogenic pathway kinase in HL-60 cells; assay type: cell-based; conditions: sublethal concentrations
From the text: (§2) The conditions of the study set forth in Example 11 were repeated using HL-60 cells as the target and comparing the effects of A-EA6 and BPD-MA on cytotoxicity, on the mitogenic pathway kinase p70 S6K, and on the stress pathway kinases c-jun and HSP27.

[9] = test system: stress pathway kinases c-jun and HSP27; experiment: PDT effect on stress pathway kinases in HL-60 cells; assay type: cell-based; conditions: sublethal concentrations
From the text: as §2

C=Cc1c(C)c2cc3nc(cc4[nH]c(cc5nc(cc1[nH]2)C(C)=C5CCC(=O)OCCO)c(CCC(=O)OCCO)c4C)C1(C)C3=CC=C(C(=O)OC)C1C(=O)OC (stereo not shown) [A-EA6]
cytotoxicity compared with BPD-MA ([1]; absence of serum): comparable cytotoxicity to BPD-MA
cytotoxicity compared with BPD-MA ([1]; presence of serum): markedly more toxic
percent DNA fragmentation compared with BPD-MA [2]: effective at lower concentrations than BPD-MA
reduction of MHC I mean channel fluorescence vs light-treated control cells ([3]; 1 ng/ml): approximately 25%
reduction of MHC I mean channel fluorescence vs light-treated control cells ([3]; 2.5 ng/ml): approximately 25%
LD50 [4]: 2.7 ng/mL
caspase activation compared with BPD-MA [5]: stronger activation of caspases
Percent suppression of ear swelling ([6]; 0.3 mg/kg IV): 59%
Percent suppression of ear swelling ([6]; 1.0 mg/kg IV): 68%
Day 7 tumor-free animals ([7]; irradiation 15 min post i.v.): 2/2
Day 7 tumor-free animals ([7]; irradiation 30 min post i.v.): 6/6
inhibition of mitogenic pathway kinases compared with BPD-MA [8]: stronger inhibition of the mitogenic pathway kinases
activation of stress pathway kinases compared with BPD-MA [9]: stronger activation of the stress pathway kinases
